This is an account of results in patent publication US9839618B2, “Compositions and methods relating to proliferative diseases” (The Penn State Research Foundation, priority 2010, dated 2017).

Entries after “also recorded” stand apart in the source; their conditions may differ.

The assay concerns PI3K/Akt signaling pathway. The assay is described as follows: Western blot, PI3K/Akt pathway. Type of assay: cell-based, human. To be noted: for PI3K/AKT pathway (pAKT, pPRAS40, cyclin D1): Example 8, 24 hours, actives 3-5 μmol/L, inactives 30-50 μmol/L. How it is done:
For Western blot analysis, cell lysates are harvested by addition of RIPA lysis buffers containing 25 mM Tris.HCl pH 7.6, 150 mM NaCl, 1% NP-40, 1% sodium deoxycholate, 0.1% SDS, 10 mM EDTA, 1 mM sodium orthovanadate, 0.1 mM sodium molybdate, 1 mM phenylmethylsulfonyl fluoride, 20 μg/mL aprotinin, and 5 μg/mL leupeptin. The cell lysates are harvested and processed as described in Madhunapantula, S. V. et al., Cancer Res, 2007, 67:3626-36. Treatment conditions: 1-1.5×10^6 melanoma cells are plated in 100 mm culture dishes, 48 h later, treated with leelamine (3-6 μmol/L) for 3 to 24 hours. Protein lysates are collected for Western blotting. The blots are probed with antibodies according to each supplier's recommendations: antibodies to total Akt, phospho-Akt (Ser473), total PRAS40, phospho-PRAS40 (Thr246), total CREB, phospho-CREB (Ser133), phospho-p70 S6 kinase (Thr389), total Erk1/2, phospho-Erk1/2 (Thr202/Tyr 204), total CDK2, phospho-CDK2 (Thr160), phospho-Rb (Ser807/811), total Stat, phospho-Stat1 (Tyr701), Phospho-Stat-2(Tyr690), Phospho-Stat3(Ser727), phospho-Stat3(Tyr705) and cleaved PARP from Cell Signaling Technology (Danvers, Mass.); total PRAS40 from Invitrogen (Carlsbad, Calif.); cyclin D1, Bcl-2, α-enolase and secondary antibodies conjugated with horseradish peroxidase from Santa Cruz Biotechnology (Santa Cruz, Calif.). Immunoblots are developed using the enhanced chemiluminescence (ECL) detection system (Thermo Fisher Scientific, Rockford, Ill.). Intensity of protein bands is quantified using ImageJ software.
For Western blot analysis, 1×10^6 melanoma cells are plated in 100 mm culture dishes, 48 hours later, treated with empty liposomes or Nanolipolee-007 (3-6 μmol/L) for 3 to 24 hours. Protein lysates collected for Western blotting. The cell lysates are harvested in an RIPA lysis buffer containing protease and phosphatases inhibitors (Pierce Biotechnology, Rockford, Ill.). Blots are probed with antibodies according to each supplier's recommendations: antibodies to total Akt, phospho-Akt (Ser473), total PRAS40, phospho-PRAS40 (Thr246), total Bad, pBad (Ser 112) total Erk1/2, phospho-Erk1/2 (Thr202/Tyr 204), total CDK2, phospho-CDK2 (Thr160), phospho-Rb (Ser807/811), total Stat, phospho-Stat3 (Tyr705), caspase-3 and cleaved PARP from Cell Signaling Technology (Danvers, Mass.); total PRAS40 from Invitrogen (Carlsbad, Calif.); cyclin D1, α-enolase and secondary antibodies conjugated with horseradish peroxidase from Santa Cruz Biotechnology (Santa Cruz, Calif.). Immunoblots are developed using the enhanced chemiluminescence (ECL) detection system (Thermo Fisher Scientific, Rockford, Ill.). Intensity of protein bands is quantified using ImageJ software.
Cell lysates are harvested by addition of RIPA lysis buffers containing 25 mM Tris*HCl pH 7.6, 150 mM NaCl, 1% NP-40, 1% sodium deoxycholate, 0.1% SDS, 10 mM EDTA, 1 mM sodium orthovanadate, 0.1 mM sodium molybdate, 1 mM phenylmethylsulfonyl fluoride, 20 μg/mL aprotinin, and 5 μg/mL leupeptin. The cell lysates are harvested and processed as described. […] Protein lysates collected for Western blotting. […] Intensity of protein bands is quantified using ImageJ software. […]

Regarding `CC(C)C1=CC2=CCC3[C@](C)(CCC[C@@]3(C)C(=O)O)C2CC1` (stereo partly drawn) [Abietic acid, (1R,4aR)-1,4a-dimethyl-7-(propan-2-yl)-1,2,3,4,4a,4b,5,6,10,10a-decahydrophenanthrene-1-carboxylic acid, reference compound], the “PI3K/AKT pathway (pAKT, pPRAS40, cyclin D1)” value (shortened to “PI3K/AKT pathway”) was “unable to affect”. As for `CC(C)C1=CC2=CCC3[C@](C)(CN)CCC[C@]3(C)C2CC1` (stereo partly drawn) [Compound 4a, {[(1R,4aR)-1,4a-dimethyl-7-(propan-2-yl)-1,2,3,4,4a,4b,5,6,10,10a-decahydrophenanthren-1-yl]methyl}amine], the “PI3K/AKT pathway” value was “decrease pAKT, pPRAS40 and cyclin D1”.

In the case of `CC(C)c1ccc2c(c1)CCC1[C@](C)(CNC(=O)C(F)(F)F)CCC[C@]21C` (stereo partly drawn) [Compound 5a, N-{[(1R,4aS)-1,4a-dimethyl-7-(propan-2-yl)-1,2,3,4,4a,9,10,10a-octahydrophenanthren-1-yl]methyl}-2,2,2-trifluoroacetamide], the “PI3K/AKT pathway” value was “decrease pAKT, pPRAS40 and cyclin D1”. As for `CC(C)c1ccc2c(c1)CCC1[C@](C)(CN)CCC[C@]21C` (stereo partly drawn) [Leelamine, [(1R,4aS)-1,4a-dimethyl-7-(propan-2-yl)-1,2,3,4,4a,9,10,10a-octahydrophenanthren-1-yl]methanamine], the “PI3K/AKT pathway” value is “highly effective in abolishing activation of AKT pathway; also recorded: decrease pAKT, pPRAS40 and cyclin D1”. Further, the “PI3 kinase pathway signaling” value (3 to 6 μmol/L for 3 to 24 hours, UACC 903 and 1205 Lu) was “decrease activity”.
